Counter-ions that a name gives are not always drawn.
Test system: mPer2Luc MEF
Experiment: PER2::LUC luminescence relative to vehicle control (fold of vehicle); higher = higher PER2::LUC reporter signal
Procedure: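 Secondary dose-response validation of 72 circadian-modulating compounds in mPer2Luc MEFs, threefold dilution series of six doses from 10 uM down to 0.04 uM. PER2::LUC luminescence read at 24 h and 30 h after treatment, normalised to vehicle (DMSO) control.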

[1] = time after treatment: 24-hour, concentration: 0.04μM
[2] = time after treatment: 24-hour, concentration: 0.37μM
[3] = time after treatment: 24-hour, concentration: 3.33μM
[4] = time after treatment: 24-hour, concentration: 10μM
[5] = time after treatment: 30-hour, concentration: 0.04μM
[6] = time after treatment: 30-hour, concentration: 0.37μM
[7] = time after treatment: 30-hour, concentration: 3.33μM
[8] = time after treatment: 30-hour, concentration: 10μM

SMILES	PER2::LUC luminescence [1]	PER2::LUC luminescence [2]	PER2::LUC luminescence [3]	PER2::LUC luminescence [4]	PER2::LUC luminescence [5]	PER2::LUC luminescence [6]	PER2::LUC luminescence [7]	PER2::LUC luminescence [8]
O=C(O)c1ccc2c(c1)nc(Nc1cccc(Cl)c1)c1ccncc12 [CX-4945]	1.13	1.06	1.05	0.842	1.11	1.05	1.08	1.06
Nc1nccc(Oc2ccc(NC(=O)c3c[nH]cc(-c4ccc(F)cc4)c3=O)cc2F)c1Cl	1	1.02	1.03	1.12	1.06	1.03	0.929	1
Cc1nc(Nc2ncc(C(=O)Nc3c(C)cccc3Cl)s2)cc(N2CCN(CCO)CC2)n1 [Dasatinib]	0.438	0.416	0.269	0.074	0.368	0.366	0.244	0.084
CCc1nc(-c2cccc(C)c2)c(-c2ccnc(NC(=O)c3ccccc3)c2)s1 [TAK 715]	0.993	0.95	0.955	0.895	0.926	0.929	0.924	0.888
CC[C@@H]1C(=O)N(C)c2cnc(Nc3ccc(C(=O)N[C@H]4CC[C@H](N5CCN(CC6CC6)CC5)CC4)cc3OC)nc2N1C(C)C [BI-6727 (Volasertib)]	0.71	0.565	0.287	0.074	0.679	0.574	0.326	0.08
OCc1ccc(-c2ccc(-c3ccc(CO)s3)o2)s1	1.37	1.41	1.49	1.24	1.62	1.63	1.68	1.41
COc1cc2c(Oc3ccc4[nH]c(C)cc4c3F)ncnc2cc1OCCCN1CCCC1 [Cediranib]	0.767	0.585	0.35	0.033	0.662	0.496	0.306	0.019
O=C(Cc1ccc(-c2ccc(OCCN3CCOCC3)cc2)cn1)NCc1ccccc1 [KX2-391]	0.85	0.597	0.429	0.365	0.786	0.627	0.497	0.478
O=c1cc(N2CCOCC2)oc2c(-c3cccc4c3sc3ccccc34)cccc12	0.952	0.951	1.05	1.07	0.952	0.931	1.08	1.09
O=c1c(-c2ccc(O)cc2)coc2cc(O)ccc12 [Daidzein]	1.01	0.97	1.1	1.3	0.995	1.04	1.11	1.59
COc1cc(OC)cc(C(=O)Nc2ccc(Cl)c(-c3nc4ccc(N(C)C)cc4[nH]3)c2)c1 [HhAntag]	1.03	1.07	1.03	1.12	0.988	1.04	1.12	1.44
CC1=C2C[C@H]3[C@@H](CC=C4C[C@@H](O)CC[C@@]43C)[C@@H]2CC[C@]12O[C@@H]1C[C@H](C)CN[C@H]1[C@H]2C [Cyclopamine]	0.834	0.74	0.421	0.178	0.991	0.999	0.766	0.229
CN1CCN(c2ccc3nc(-c4c(N)c5c(F)cccc5[nH]c4=O)[nH]c3c2)CC1 [Dovitinib (TKI-258)]	0.917	0.895	0.651	0.477	0.945	0.895	0.609	0.29
COc1ccccc1-c1cc(Nc2cccc(CS(N)(=O)=O)c2)ncn1	0.961	0.968	0.971	0.804	0.841	0.933	0.964	0.982
CCOc1cc(C(=O)N2CCC(N3CCN(C)CC3)CC2)ccc1Nc1ncc2c(n1)N(C1CCCC1)c1ccccc1C(=O)N2C [XMD17-109]	0.79	0.698	0.241	0.049	0.796	0.664	0.285	0.055
O=C(c1ccc(OCCN2CCCCC2)cc1)c1c(-c2ccc(O)cc2)sc2cc(O)ccc12 [Raloxifene HCl]	0.941	0.955	0.814	0.287	1	0.996	0.896	0.512
C/C(=C\C(=O)Nc1ccccc1C(=O)O)c1ccc2ccccc2c1 [BIBR 1532]	0.94	0.97	0.991	1.16	0.94	0.891	0.98	1.26
C[C@@H](O[C@H]1OCCN(Cc2nn(P(=O)(O)O)c(=O)[nH]2)[C@H]1c1ccc(F)cc1)c1cc(C(F)(F)F)cc(C(F)(F)F)c1 [Fosaprepitant dimeglumine]	1.06	1.02	0.627	0.456	0.978	0.951	0.891	0.849
CCOc1cc2ncc(C#N)c(Nc3ccc(F)c(Cl)c3)c2cc1NC(=O)/C=C/CN(C)C [Pelitinib (EKB-569)]	0.891	0.933	0.78	0.334	0.836	0.815	0.618	0.227
CNC(=O)c1cc(Oc2ccc(NC(=O)Nc3cc(C(C)(C)C)nn3-c3ccc4ncccc4c3)c(F)c2)ccn1 [DCC-2036]	1.27	1.3	1.28	1.1	1.72	1.81	1.74	1.27

Reference: the supplement of paper PMC9334596
